Patent EP0745595A1, “3-(3-Aryloxyphenyl)-1-(substituted methyl)-s-triazine-2,4,6-oxo or thiotrione herbicidal agents” (American Cyanamid Company, priority 1995, dated 1996)

Columns and labels:
Type in all cases: in vivo
[1] = tested on: ABUTILON THEOPHRASTI, MEDIC.; assay: Postemergence herbicidal evaluation, ABUTH (Velvetleaf);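 further: higher means more injury with 8 approaching complete kill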
How it was run: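 This postemergence herbicide test used two-week-old velvetleaf seedlings grown in jiffy flats. Each compound was sprayed at 40 psi as a dispersion in 50/50 acetone/water with 0.5% TWEEN®20 surfactant. Plants then received routine greenhouse care. After four to five weeks, injury was scored visually on a 0-9 scale against a control, and replicate tests were averaged.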

[2] = tested on: AMBROSIA ARTEMISIIFOLIA, L.; assay: Postemergence herbicidal evaluation, AMBEL (Ragweed, Common);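 further: higher means more injury with 8 approaching complete kill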
How it was run: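 Postemergence herbicidal activity on AMBEL (common ragweed) was assessed on two-week-old seedlings grown in jiffy flats. Treatment solutions of 50/50 acetone/water with 0.5% TWEEN®20 surfactant were sprayed at 40 psi. After four to five weeks in the greenhouse, plants were scored 0-9 against a control for stand, vigor, malformation, size, chlorosis and overall appearance, with multiple tests averaged.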

CASSIA OBTUSIFOLIA, L. = assay: Postemergence herbicidal evaluation, CASOB (Sicklepod); set-up: key to CASOB rating / Herbicidal effect rating, CASOB / CASOB: 0-9 visual rating scale vs untreated control;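 further: higher means more injury with 8 approaching complete kill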
How it was run: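 Postemergence foliar spray at approximately 0.125–0.500 kg/ha onto two-week seedlings; greenhouse hold, then 0–9 visual injury rating after 4–5 weeks.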

IPOMOEA SPP. = assay: Postemergence herbicidal evaluation, IPOSS (Morningglory spp.);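 further: higher means more injury with 8 approaching complete kill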
How it was run: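 In this greenhouse postemergence herbicide test on Ipomoea spp. (morningglory), compounds in 50/50 acetone/water with 0.5% TWEEN®20 were sprayed at 40 psi onto seedlings about two weeks old grown in jiffy flats. After four to five weeks, injury was scored on a 0-9 scale covering stand, vigor, malformation, size, chlorosis and overall appearance versus control, with repeat tests averaged.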

GALIUM APARINE = assay: Postemergence herbicidal evaluation, GALAP (Galium); set-up: key to GALAP rating / Herbicidal effect rating, GALAP / GALAP: 0-9 visual rating scale vs untreated control;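 further: higher means more injury with 8 approaching complete kill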
How it was run: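 In this postemergence greenhouse test, two-week-old Galium aparine seedlings grown in jiffy flats received a 40 psi spray of compound in acetone/water (50/50) with 0.5% TWEEN®20 surfactant. After four to five weeks, stand, vigor, malformation, size, chlorosis and overall appearance were compared with untreated controls on a 0-9 scale, averaging multiple tests.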

[3] = tested on: ECHINOCHLOA CRUS-GALLI, (L) BEAU; assay: Postemergence herbicidal evaluation, ECHCG (Barnyardgrass); set-up: key to ECHCG rating / Herbicidal effect rating, ECHCG / ECHCG: 0-9 visual rating scale vs untreated control
How it was run: (§1)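 Ratings (0-9) reflect visual stand, vigor, malformation, size and chlorosis compared with untreated plants, assessed 4-5 weeks after postemergence spraying. Treatment was applied to roughly two-week-old seedlings at about 0.125-0.500 kg/ha in acetone/water with 0.5% Tween 20; replicate tests were averaged.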

[4] = tested on: SETARIA VIRIDIS, (L) BEAU; assay: Postemergence herbicidal evaluation, SETVI (Foxtail, Green); set-up: key to SETVI rating / Herbicidal effect rating, SETVI / SETVI: 0-9 visual rating scale vs untreated control
How it was run: as §1

[5] = tested on: TRITICUM AESTIVUM, CV. APOLLO; assay: Postemergence herbicidal evaluation, TRZAWO (Wheat, Winter, CV. APOLLO);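 further: higher means more injury with 8 approaching complete kill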
How it was run: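 This greenhouse postemergence test applied compounds to roughly two-week-old wheat seedlings grown in jiffy flats. The spray solution was 50/50 acetone/water with 0.5% TWEEN®20, a polyoxyethylene sorbitan monolaurate, sprayed from a nozzle run at 40 psi. After four to five weeks of standard greenhouse care, injury was scored from 0 to 9 by comparing stand, vigor, malformation, size, chlorosis and overall appearance with a control. Multiple tests were averaged.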

ZEA MAYS L. = assay: Postemergence herbicidal evaluation, ZEAMX (Corn, Field);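 further: higher means more injury with 8 approaching complete kill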
How it was run: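 This greenhouse postemergence test treated corn plants about two weeks old. Compounds in a 50/50 acetone/water mixture with 0.5% TWEEN®20 were applied through a spray nozzle at 40 psi. After four to five weeks, injury was scored 0-9 against an untreated control, judging stand, vigor, malformation, size, chlorosis and overall appearance. Repeated tests were averaged.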

CHENOPODIUM ALBUM, L. = assay: Preemergence herbicidal evaluation, CHEAL (Lambsquarters, Common);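 further: higher means more injury with 8 approaching complete kill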
How it was run: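 Preemergence, greenhouse: seed + potting soil sown on ~1 inch soil in cups; aqueous acetone spray, ~0.125–0.50 kg/ha equivalent; rated 0-9 vs control at 4–5 wk.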

[6] = tested on: ORYZA SATIVA, L. TEBONNET; assay: Rice tolerance to post-transplant applications under flooded paddy conditions, ORYSAT (Rice, Tebonnet); settings: post-transplanted rice
How it was run: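 Visual 0-9 rating against untreated control (stand, vigor, malformation, size, chlorosis, overall appearance), taken 3-4 weeks after treatment. Flooded silt loam, water at 1.5-3 cm; two 10-day-old seedlings per pot; compound applied to flooded soil surface 3 days post-transplant at ~0.5-0.063 kg/ha.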

Cn1c(=O)[nH]c(=O)n(-c2cc(Oc3c(F)cc(C(F)(F)F)cc3Cl)ccc2[N+](=O)[O-])c1=O [D, reference compound]
ABUTH ([1]; Rate 0.008 kg/ha): 0.0 | ABUTH ([1]; Rate 0.016 kg/ha): 8.3 | ABUTH ([1]; Rate 0.031 kg/ha): 8.7 | ABUTH ([1]; Rate 0.063 kg/ha): 9.0 | ABUTH ([1]; Rate 0.125 kg/ha): 9.0 | AMBEL ([2]; Rate 0.008 kg/ha): 5.0 | AMBEL ([2]; Rate 0.016 kg/ha): 7.3 | AMBEL ([2]; Rate 0.031 kg/ha): 8.0 | AMBEL ([2]; Rate 0.063 kg/ha): 8.0 | AMBEL ([2]; Rate 0.125 kg/ha): 8.5 | CASOB (CASSIA OBTUSIFOLIA, L.; Rate 0.008 kg/ha): 1.0 | CASOB (CASSIA OBTUSIFOLIA, L.; Rate 0.016 kg/ha): 4.3 | CASOB (CASSIA OBTUSIFOLIA, L.; Rate 0.031 kg/ha): 5.0 | CASOB (CASSIA OBTUSIFOLIA, L.; Rate 0.063 kg/ha): 6.0 | CASOB (CASSIA OBTUSIFOLIA, L.; Rate 0.125 kg/ha): 9.0 | IPOSS (IPOMOEA SPP.; Rate 0.016 kg/ha): 7.3 | IPOSS (IPOMOEA SPP.; Rate 0.031 kg/ha): 7.7 | IPOSS (IPOMOEA SPP.; Rate 0.063 kg/ha): 7.3 | IPOSS (IPOMOEA SPP.; Rate 0.125 kg/ha): 9.0 | GALAP (GALIUM APARINE; Rate 0.008 kg/ha): 4.0 | GALAP (GALIUM APARINE; Rate 0.016 kg/ha): 8.0 | GALAP (GALIUM APARINE; Rate 0.031 kg/ha): 9.0 | GALAP (GALIUM APARINE; Rate 0.063 kg/ha): 8.5 | GALAP (GALIUM APARINE; Rate 0.125 kg/ha): 9.0 | ECHCG ([3]; Rate 0.016 kg/ha): 3.0 | ECHCG ([3]; Rate 0.031 kg/ha): 1.5 | ECHCG ([3]; Rate 0.063 kg/ha): 2.0 | ECHCG ([3]; Rate 0.125 kg/ha): 2.5 | SETVI ([4]; Rate 0.008 kg/ha): 0.0 | SETVI ([4]; Rate 0.016 kg/ha): 1.0 | SETVI ([4]; Rate 0.031 kg/ha): 1.3 | SETVI ([4]; Rate 0.063 kg/ha): 1.3 | SETVI ([4]; Rate 0.125 kg/ha): 1.5 | TRZAWO ([5]; Rate 0.016 kg/ha): 3.5 | TRZAWO ([5]; Rate 0.031 kg/ha): 4.5 | TRZAWO ([5]; Rate 0.063 kg/ha): 5.3 | TRZAWO ([5]; Rate 0.125 kg/ha): 5.3 | ZEAMX (ZEA MAYS L.; Rate 0.008 kg/ha): 1.0 | ZEAMX (ZEA MAYS L.; Rate 0.016 kg/ha): 3.3 | ZEAMX (ZEA MAYS L.; Rate 0.031 kg/ha): 3.3 | ZEAMX (ZEA MAYS L.; Rate 0.063 kg/ha): 4.2 | ZEAMX (ZEA MAYS L.; Rate 0.125 kg/ha): 5.5 | CHEAL (CHENOPODIUM ALBUM, L.; Rate 0.031 kg/ha): 9.0 | CHEAL (CHENOPODIUM ALBUM, L.; Rate 0.063 kg/ha): 9.0 | CHEAL (CHENOPODIUM ALBUM, L.; Rate 0.125 kg/ha): 9.0 | CHEAL (CHENOPODIUM ALBUM, L.; Rate 0.250 kg/ha): 9.0 | ORYSAT ([6]; Rate 0.031 kg/ha): 3.0 | ORYSAT ([6]; Rate 0.063 kg/ha): 3.0 | ORYSAT ([6]; Rate 0.125 kg/ha): 3.0 | ORYSAT ([6]; Rate 0.250 kg/ha): 6.0
